One test addresses T1, A623E/S769N PfATP6 (Plasmodium falciparum, UniProt Q08853, A623E/S769N).
T1 construct: expressed in transfected cells; host or cells: Saccharomyces cerevisiae K667-derived strain
T1 sequence (Q08853 1-1228 A623E/S769N): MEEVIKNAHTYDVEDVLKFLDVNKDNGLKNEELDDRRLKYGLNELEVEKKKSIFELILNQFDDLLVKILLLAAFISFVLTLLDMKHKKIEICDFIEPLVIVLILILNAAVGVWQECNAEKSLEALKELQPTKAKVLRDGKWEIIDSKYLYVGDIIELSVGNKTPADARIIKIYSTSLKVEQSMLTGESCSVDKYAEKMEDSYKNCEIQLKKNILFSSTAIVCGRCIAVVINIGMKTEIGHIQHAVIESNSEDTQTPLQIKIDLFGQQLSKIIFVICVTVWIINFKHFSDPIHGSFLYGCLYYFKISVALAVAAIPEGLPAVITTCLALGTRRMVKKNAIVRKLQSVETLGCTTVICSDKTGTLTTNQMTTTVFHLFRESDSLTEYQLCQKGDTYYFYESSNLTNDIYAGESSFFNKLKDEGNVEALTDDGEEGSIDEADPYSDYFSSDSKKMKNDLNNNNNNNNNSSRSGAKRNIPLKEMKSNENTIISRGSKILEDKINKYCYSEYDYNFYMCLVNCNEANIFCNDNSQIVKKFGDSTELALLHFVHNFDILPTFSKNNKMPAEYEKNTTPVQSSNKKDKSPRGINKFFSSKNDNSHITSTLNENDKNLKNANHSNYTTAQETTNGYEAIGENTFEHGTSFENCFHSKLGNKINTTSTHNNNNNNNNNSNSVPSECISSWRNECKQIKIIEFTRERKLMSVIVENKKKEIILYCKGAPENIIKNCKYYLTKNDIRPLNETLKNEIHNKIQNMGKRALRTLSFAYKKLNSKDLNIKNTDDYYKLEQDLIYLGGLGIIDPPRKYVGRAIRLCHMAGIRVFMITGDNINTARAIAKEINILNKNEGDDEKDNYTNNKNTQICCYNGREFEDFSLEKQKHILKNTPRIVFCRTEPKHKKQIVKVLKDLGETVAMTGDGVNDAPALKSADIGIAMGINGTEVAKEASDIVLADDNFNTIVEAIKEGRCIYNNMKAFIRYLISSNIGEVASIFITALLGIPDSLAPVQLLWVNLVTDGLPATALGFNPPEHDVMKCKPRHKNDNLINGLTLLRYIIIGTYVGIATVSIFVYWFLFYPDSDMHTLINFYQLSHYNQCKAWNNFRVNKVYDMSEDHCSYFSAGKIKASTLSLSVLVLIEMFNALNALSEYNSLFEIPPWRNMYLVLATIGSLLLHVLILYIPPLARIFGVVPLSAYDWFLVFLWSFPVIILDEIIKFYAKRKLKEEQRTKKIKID
Nature of the test: Yeast whole-cell assay, PfATP6 A623E/S769N double mutant. It counts as cell-based. Conditions: read-out: IC50 (mean ± SD). As to the method: Yeast transformations were performed using the method described by Gietz and Schiestl ([48]), and transformants were selected by an uracil auxotrophic marker. Transformations were confirmed by colony PCR. Both K667 and K667Δpdr5::HIS were transformed with the following plasmids: pUGpd plasmid as a vector-only control (derived from pRS316 [49]); br434 plasmid (derived from pRS316 [50]) containing the SERCA1a coding region from rabbit skeletal fast-twitch muscle (pbr434-SERCA1a); and pUGpd containing the yeast-optimized coding region of PfATP6 from Plasmodium falciparum (pUGpd-PfATP6). Site-directed mutagenesis was performed on the SERCA1a coding region to produce the mutation E255L in the protein. Mutations were also introduced into the PfATP6 coding region to produce mutations L263E, A623E, and S769N and the double mutation A623E/S769N ([13]).
The screening assay used here was developed from the protocol used by Pulcini et al. ([13]). […] The optimal calcium concentration was periodically monitored and, if necessary, adjusted using a calcium concentration range of 10 to 30 mM. […] The yeast growth was estimated from the absorbance at 620 nm in a Tecan plate reader. […] The data collected were analyzed using GraphPad Prism v9.0 (GraphPad software, San Diego, CA, U.S.A).

For the next test, the target named is PfATP6 (Plasmodium falciparum, UniProt Q08853). As to the kind of experiment: In vitro activity assay, PfATP6 (membrane-bound). It counts as biochemical. Also noted: pUGpd containing the yeast-optimized coding region of PfATP6 from Plasmodium falciparum; expressed in transfected cells. The settings on record: 1 μM free calcium. As to the method:
Activity assays were performed as described by Longland et al. ([55]) and LeBel et al. ([56]), except that the reaction mixtures were incubated at 30°C instead of 37°C. […] Then, 5.8 mM ATP was added and incubated for an additional 15 min at 30°C. The reaction was stopped with 0.5 mL 6.5% trichloroacetic acid (TCA) on ice, and the mixture was centrifuged at 4°C for 10 min at 16,000 × g; 0.5 mL of the supernatant was added to 1.5 mL of copper acetate buffer (0.25% copper sulfate pentahydrate, 4.6% sodium acetate trihydrate, dissolved in 2 M acetic acid [pH 4.0]) and mixed by vortex-mixing before the addition of 0.25 mL of 5% ammonium molybdate, followed by 0.25 mL METOL buffer (2% p-methyl-aminophenol sulfate, 5% sodium sulfite). Samples were incubated for 10 min, and the absorbance was measured at 870 nm in a spectrophotometer. The Pi standard was 0.4387 g/100 mL KH2PO4.

pIC50: −log10 of the molar value.

Chain of PfATP6 (Q08853 whole entry): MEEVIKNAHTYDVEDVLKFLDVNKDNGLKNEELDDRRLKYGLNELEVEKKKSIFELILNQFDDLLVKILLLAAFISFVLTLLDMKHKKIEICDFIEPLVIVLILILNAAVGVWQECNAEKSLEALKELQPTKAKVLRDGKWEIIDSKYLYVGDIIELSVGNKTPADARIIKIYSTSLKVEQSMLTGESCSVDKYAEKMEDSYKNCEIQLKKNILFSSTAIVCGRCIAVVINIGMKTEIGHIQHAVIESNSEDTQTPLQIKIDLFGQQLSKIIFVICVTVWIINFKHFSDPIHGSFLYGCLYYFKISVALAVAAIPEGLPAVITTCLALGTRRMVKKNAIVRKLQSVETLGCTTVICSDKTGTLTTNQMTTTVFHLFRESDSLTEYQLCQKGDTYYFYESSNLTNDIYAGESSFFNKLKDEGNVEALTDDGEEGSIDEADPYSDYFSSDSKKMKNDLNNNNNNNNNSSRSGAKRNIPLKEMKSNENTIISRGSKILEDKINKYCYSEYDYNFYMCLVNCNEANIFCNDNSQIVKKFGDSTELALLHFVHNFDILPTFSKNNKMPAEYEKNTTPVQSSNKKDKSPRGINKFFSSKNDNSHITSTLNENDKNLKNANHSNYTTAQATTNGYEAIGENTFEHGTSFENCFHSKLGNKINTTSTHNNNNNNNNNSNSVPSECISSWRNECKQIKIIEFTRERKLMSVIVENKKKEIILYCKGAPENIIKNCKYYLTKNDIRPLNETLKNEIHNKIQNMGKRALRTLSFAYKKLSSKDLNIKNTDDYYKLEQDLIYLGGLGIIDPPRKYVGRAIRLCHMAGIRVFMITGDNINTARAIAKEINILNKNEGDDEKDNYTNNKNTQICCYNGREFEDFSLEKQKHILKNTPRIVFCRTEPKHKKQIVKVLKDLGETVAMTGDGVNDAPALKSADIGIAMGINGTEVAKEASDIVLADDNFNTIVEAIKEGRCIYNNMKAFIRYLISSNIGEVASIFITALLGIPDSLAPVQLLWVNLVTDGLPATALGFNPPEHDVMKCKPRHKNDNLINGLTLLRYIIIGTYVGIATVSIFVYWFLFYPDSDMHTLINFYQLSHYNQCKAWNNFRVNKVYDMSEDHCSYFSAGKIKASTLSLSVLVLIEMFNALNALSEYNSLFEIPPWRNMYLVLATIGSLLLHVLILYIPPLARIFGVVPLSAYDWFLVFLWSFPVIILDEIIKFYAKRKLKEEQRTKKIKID

As a reminder, the pIC50 is −log10 of the IC50, conventionally taken in molar units. For the compound `CC(=O)C1=C(O)[C@@H]2[C@H]3c4c[nH]c5cccc(c45)C[C@H]3C(C)(C)N2C1=O` [CPA, cyclopiazonic acid], on A623E/S769N PfATP6, the negative-log IC50 (pIC50) is 5.18. For the same compound, the “in vitro activity of PfATP6 versus no drug control” value on PfATP6 is on record as “No significant”.

(Values after article PMC9112895, “Selective Inhibition of Plasmodium falciparum ATPase 6 by Artemisinins and Identification of New Classes of Inhibitors after Expression in Yeast” (Antimicrobial Agents and Chemotherapy, 2022).)
